Source: patent publication US20260102377A1, “COMPOSITIONS AND METHODS FOR TREATING MYASTHENIA GRAVIS” (priority 2022, published 2026)
“Also recorded” adds a separate entry of the source. Where two headings read alike, the source gives them in different places.

Legend:
[1] = test system: EAMG muscle fibres; assay: Intracellular action potential measurement during nerve stimulation; format: cell-based, rat; conditions: 20 μM NMD670; 30 Hz nerve stimulation; EAMG muscle fibres (n=110)
Description: To allow for measurements of electrophysiological properties at the cellular level and for measurements of force, it was necessary to isolate nerve-muscle preparations from the rats. To this end, animals were sacrificed, and muscles were dissected out with 1 to 3 cm of intact nerve. The nerve-muscle preparations were then transferred to the organ baths used for the particular experiments (see below) and perfused with Normal Krebs-Ringer (NKR) solution, consisting of (in mM); 122 NaCl, 25 NaHCO3, 2.8 KCl, 1.2 KH2PO4, 1.2 MgSO4 1.27 CaCl2 and 5 D-glucose. This NKR solution was continuously gassed with a mixture of 95% oxygen and 5% CO2, to maintain a pH of approx. 7.4. In some experiments methyl-sulphate was used to replace Cl^− in the solution. All chemicals used were of analytical grade.

[2] = test system: EAMG rats; assay: 14-day dosing in EAMG animals: bodyweight and study completion; format: in vivo, rat
Experimental: To induce EAMG, 250 μL of emulsion of Complete Freund's Adjuvant, consisting of heat-inactivated Mycobacterium tuberculosis H37Ra in non-metabolizable oils, together with Phosphate-Buffered Saline (PBS) and 80 μg of the extracellular α-domain peptide fragment of the human nicotinic acetylcholine receptor (antigen) was injected subcutaneously in seven-week-old, anaesthetized Lewis rats. The disease-inducing antigen was supplied by the Hellenic Pasteur institute3. The emulsion was deposited at the tail base, left hindleg, and right foreleg. After injection, animals were allowed to recover and returned to their home cage maintained in ventilated racks under controlled temperature (20 to 22° C.) and humidity (˜55%) control, under a 12-h light/12-h dark cycle with food and water provided ad libitum. The animals had pathogen free status and the housing and changing system was designed to assure that the pathogen free status was preserved during the study. The EAMG rats were observed, weighed, and scored for MG symptoms weekly until symptoms of MG developed, whereafter animals were observed daily.
Sixteen (16) rats with an EAMG clinical score of 2 were allocated to the study and stratified to one of the two treatment groups (vehicle vs NMD670, 8 rats per group). […] Grip strength and Rotarod performance were measured prior to treatment (day 0) and on days 1, 4, 7, 9, 11 and 14 during treatment. […]

[3] = Phase IIA clinical trial (Part C): pharmacokinetics in patients; format: in vivo; conditions: both sexes, human, plasma; for AUC(0-inf): read-out: AUC0-infinity (Mean ± SD, h · ng/mL); for Cmax: read-out: Cmax (Mean ± SD, ng/mL); for half-life: read-out: T1/2 (median, hr) (converted); for Tmax: read-out: Tmax (median, hr)
Experimental: • Collect blood (3 mL recommended) onto wet ice (K2EDTA tubes) • Immediately cool blood on crushed wet ice for maximum of 30 minutes • Harvest plasma as quickly as possible using refrigerated centrifuge by centrifuging at 2000 g for 10 minutes at 4° C. • Keep plasma on wet ice and immediately stabilise with 1:1 (v/v) addition of Water: Orthophosphoric Acid (100:2 v/v) prepared using ≥85% orthophosphoric acid and deionised water (e.g. 750 μL plasma+750 μL stabiliser). • Mix sample thoroughly. • Keep the stabilised plasma on wet ice during subsequent steps. • Divide the stabilised plasma into 5×250 μL aliquots in plastic cryotubes. • Store aliquots at nominal −70° C./−80° C. promptly.
• 1. Thaw frozen calibration standards, QC samples, blank matrix and study samples on wet ice. • 2. Vortex-mix all samples thoroughly. • 3. On wet ice aliquot 150 μL of calibration standards, QC samples, study samples, and blanks into a 2 mL 96-well plate. For the reagent blank add the same volume of Water. • 4. On wet ice add 25 μL of Methanol:Water (50:50) to wells containing blanks and the same volume of ISTD intermediate solution to all other wells. • 5. On wet ice add 125 μL of Water to each well. Cap plate and vortex-mix (˜5 minutes, 1000 rpm). • 6. Centrifuge plate (˜3000 g, 3 minutes, room temperature). • 7. Condition SPE plate (Waters Oasis HLB pElution) with 250 μL Methanol. • 8. Condition SPE plate with 250 μL of Water. • 9. Load 250 μL of the sample onto the SPE plate (aspirate from the rim of the cone to avoid any debris collected at the bottom of the well). Pass through using minimum pressure. • 10. Wash SPE plate with 250 μL of Water. • 11. Wash SPE plate with 250 μL of Methanol:Water (5:95). Briefly increase pressure for one minute to ensure sorbent is partially dried. • 12. Elute from SPE plate into a 1.2 mL 96-well plate using 30 μL of Methanol. Stand for one minute then pass through using absolute minimum pressure. • 13. Elute again with another 30 μL of Methanol, collecting into the same plate. Briefly increase pressure for one minute to complete the elution. • 14. Add 125 μL of Ammonium Formate 10 mM (aq):Formic Acid (100:0.3) to each well. Cap plate and vortex mix (˜1 minute, ≥1200 rpm). • 15. Store plate refrigerated prior to analysis.
For each subject, the study consisted of three study periods during which subjects received either a single dose of NMD670 400 mg, NMD670 1200 mg, or placebo with a 7-day washout period between visits. On these study visits, subjects were asked to refrain from their regular dose of pyridostigmine (if applicable) from 14 h before dosing until after the last pharmacodynamic measurement on Day 1 (see Table 13: Visit and Assessment Schedule). The cross-over design allowed intra-individual comparison of drug effects versus placebo (see FIG. 16). A balanced design was applied to control for first-order carry-over effects.
Part C was a double-blinded, placebo-controlled, three-way cross-over comparison of two single oral doses of NMD670 in men and women with stable symptomatic myasthenia gravis. 12 patients were enrolled. For each subject, the study consisted of three study periods during which subjects received either a single dose of NMD670 or placebo. On these study visits, subjects were asked to refrain from their regular dose of pyridostigmine (if applicable) for 14 hours before dosing. Single doses were administered in randomized order (400 mg free acid, 1200 mg free acid, or placebo p.o.), with a 7-day washout period between visits (FIG. 16). NMD670/placebo was administered with 240 ml of still water.

In the case of `C[C@H](Oc1ccc(Br)cc1-c1ccon1)C(=O)O` [NMD670, (2S)-2-[4-bromo-2-(1,2-oxazol-3-yl)phenoxy]propanoic acid], the “Success of repeated action potential excitations” value [1] is reported as “improved markedly; also recorded: AP excitation failures were less common”, the “Loss of body weight versus vehicle” value ([2]; 14-day chronic dosing, EAMG animals, 20 mg/kg twice daily (b36 prints 40 mg/kg BID)) is reported as “attenuation in loss of body weight” and the “Treated rats that completed the study” value ([2]; 14-day study, early termination when body weight below 80% of maximum, vehicle 3 out of 8) is reported as 6 of the 8. For the same compound, the AUC(0-inf) ([3]; 400 mg single oral dose) was 93.7 µg·h/mL, the Cmax ([3]; 400 mg single oral dose) was 21700 ng/mL and the half-life ([3]; 400 mg single oral dose) was 5.43 h. The Tmax ([3]; 400 mg single oral dose) was 2 h, the AUC(0-inf) ([3]; 1200 mg single oral dose) was 378 µg·h/mL and the Cmax ([3]; 1200 mg single oral dose) was 76700 ng/mL. It also gave a half-life ([3]; 1200 mg single oral dose) of 5.06 h and a Tmax ([3]; 1200 mg single oral dose) of 2 h.
